Results as given in US10434193B2, “Composition for use in medical imaging and a method for preparing thereof” (Jacobson Research Laboratory Limited, priority 2017, dated 2019).

Assay: Determination of relaxivities r1 and r2 of contrast agents under MRI
Type: physicochemical
Excerpt: During an MRI study, an MRI contrast agent generally shortens the value of a characteristic time constant known as the relaxation time of the nearby water protons at the tissues being examined to thereby enhance contrast of the image. The relaxivity of a contrast agent reflects how the relaxation rates of a solution change as a function of concentration [C]. Since a contrast agent may individually affect two relaxation rates (1/ΔT1 and 1/ΔT2), the degree of contrast as provided by a contrast agent is generally characterized under two corresponding relaxivities, i.e. r1 and r2 (L/mmol-s), which are defined by: 1/ΔT1=r1·[C] and 1/ΔT2=r2·[C]
The relaxation rates of a contrast agent in solution are obtained by graphing changes in relaxation rates (1/ΔT1) and (1/ΔT2) at different concentrations, with r1 and r2 being determined by the slopes of the graph.
For each of the contrast agents being tested, samples have been prepared in 10 different concentrations, namely, 1000 μg/ml, 750 μg/ml, 500 μg/ml, 250 μg/ml, 125 μg/ml, 62.50 μg/ml, 31.25 μg/ml, 15.63 μg/ml, 7.81 μg/ml and 3.91 μg/ml using DMF:H2O 4:1 as solvent for dilution of the respective stock samples.

[1] = 10 concentrations 3.91-1000 μg/ml in DMF:H2O 4:1

Compound	r1 [1] [mL/µg/s]	r1 (molecular weight adjusted) [L/mmol/s]
O=[N+]([O-])[O-].O=[N+]([O-])[O-].O=[N+]([O-])[O-].[Fe+3] [Fe(NO3)3, iron nitrate]	0.0004	0.0968
[Cl][Gd]([Cl])[Cl] [GdCl3]	0.0494	13.0416
